What was measured:
MALT1 = biological target: T1, MALT1 (Homo sapiens, UniProt Q9UDY8); experiment: MALT1 activity in treated cells (immunoprecipitation, AC-LRSR-AMC cleavage); type: cell-based
T1 construct: endogenous in cells; host or cells: Panc-1, Panc-2, HPDE, Jurkat (PMA-stimulated and non-stimulated)
T1 sequence (Q9UDY8 1-824): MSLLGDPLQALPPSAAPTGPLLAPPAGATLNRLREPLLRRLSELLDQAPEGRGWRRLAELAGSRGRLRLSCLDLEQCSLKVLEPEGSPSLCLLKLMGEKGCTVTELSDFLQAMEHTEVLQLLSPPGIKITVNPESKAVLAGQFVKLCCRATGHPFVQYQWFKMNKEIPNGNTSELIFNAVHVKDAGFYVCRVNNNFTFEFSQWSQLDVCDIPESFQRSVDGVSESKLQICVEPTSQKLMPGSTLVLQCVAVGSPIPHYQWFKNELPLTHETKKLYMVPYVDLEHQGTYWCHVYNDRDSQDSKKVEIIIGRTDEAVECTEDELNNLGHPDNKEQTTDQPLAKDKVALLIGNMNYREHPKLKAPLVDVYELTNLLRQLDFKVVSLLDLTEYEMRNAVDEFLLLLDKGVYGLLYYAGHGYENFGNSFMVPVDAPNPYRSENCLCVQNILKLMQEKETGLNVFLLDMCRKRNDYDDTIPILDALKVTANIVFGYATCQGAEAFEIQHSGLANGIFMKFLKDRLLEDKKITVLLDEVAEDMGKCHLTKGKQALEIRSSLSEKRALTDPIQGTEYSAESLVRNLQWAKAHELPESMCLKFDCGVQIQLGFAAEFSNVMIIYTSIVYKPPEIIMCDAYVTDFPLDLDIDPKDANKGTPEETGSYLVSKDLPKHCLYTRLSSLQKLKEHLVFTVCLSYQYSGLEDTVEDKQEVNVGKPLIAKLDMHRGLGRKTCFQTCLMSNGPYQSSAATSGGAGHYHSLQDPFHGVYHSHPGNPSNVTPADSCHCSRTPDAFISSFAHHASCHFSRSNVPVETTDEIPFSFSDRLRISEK
Description: The MALT1 activity was measured in the pancreatic cancer cells Panc-1, Panc-2 and in the reference line HPDE as well as in the PMA-stimulated and non-stimulated Jurkat cells. In order to examine whether mepazine, biperiden or a combination of both active ingredients influence the MALT1 activity and pancreatic cancer cells, an assay was performed as described in Nagel et al.. For this purpose, the pancreatic cancer cell lines and the reference cell lines were treated with biperiden (29.6 μg/ml), mepazine (25 μM), a combination of both active ingredients (15 μM mepazine+3.71 μg/ml biperiden) or only with DMSO. The cells were subsequently lysed and precipitated with mouse anti-MALT1 antibody (SC-76677, Santa Cruz, Calif., USA) as previously described by Gungor et al.. As described in the protocol, the fluorogenic substrate AC-LRSR-AMC, which was derived from the C-terminal BCL 10 cleavage site, was used as a substrate for MALT1. The cleavage activity of MALT1 was subsequently determined as relative fluorescence units by a microtiter plate reader (FLUOstar, Omega, BMG Labtech).
The results were determined after 24 hours of incubation with mepazine, biperiden, or a combination of both active ingredients. It was shown that pancreatic cancer cell lines as well as non-malignant, immortalized HPDE cell lines had constitutive MALT1 activity, although to a different extent. As a reference, a non-stimulated Jurkat cell line and a Jurkat cell line that was activated with PMA were examined.

[1] = tested on: pancreatic cancer cell lines; experiment: MTT proliferation assay, all pancreatic cancer cell lines; type: cell-based, human; conditions: in the presence of biperiden, mepazine or a combination
Description: (§1) The cell lines used for the proliferation assays were cultured in different media. The cell lines Pan-1, Panc-2 and BxPC3, which have been derived from the human ductal pancreatic adenocarcinoma (PDAC), were cultured in Dulbecco's modified Eagle medium (DMEM) (Sigma), that was supplemented with 1% penicillin/streptomycin (Life technologies/GIBCO 15140-122) and 10% fetal bovine serum (Life technologies/GIBCO 100500-064). The cell line L3.6pl was cultured in RPMI 1640 medium (Life technologies/GIBCO 72400-21) that was supplemented with 1% penicillin/streptomycin and 10% fetal bovine serum. […]
(§2) The proliferation rates of the cell lines were determined after stimulation with (i) biperiden, (ii) mepazine, and (iii) stimulation with both active ingredients. […] Next morning, the blanket values were measured at 490 nm in an ELISA reader (FLUOstar Omega, BMG LABTECH) after the addition of 100 μL medium and 20 μL MTT substrate (CellTiter 96 AQueous One Solution Cell Proliferation Assay, Promega). […] The ex-tinction was measured every 24 hours during a period of 72 hours.
(§3) The normal distribution of the results was analyzed by Kolgomorov-Smirnov test and Shapiro-Wilk test. Non-parametric variables were analyzed using the Mann-Whitney-U test. […]

L3.6pl wt = experiment: MTT proliferation assay, L3.6pl wt; type: cell-based, human
Description: as §1, §2, §3

L3.6pl res = experiment: MTT proliferation assay, L3.6pl res (gemcitabine-resistant); type: cell-based, human
Description: The cell lines used for the proliferation assays were cultured in different media. The cell lines Pan-1, Panc-2 and BxPC3, which have been derived from the human ductal pancreatic adenocarcinoma (PDAC), were cultured in Dulbecco's modified Eagle medium (DMEM) (Sigma), that was supplemented with 1% penicillin/streptomycin (Life technologies/GIBCO 15140-122) and 10% fetal bovine serum (Life technologies/GIBCO 100500-064). The cell line L3.6pl was cultured in RPMI 1640 medium (Life technologies/GIBCO 72400-21) that was supplemented with 1% penicillin/streptomycin and 10% fetal bovine serum. A sub-clone of the cell line L3.6pl, that was designated L3.6pl res, was resistant to gemcitabine and was also cultured in RPMI 1640 medium (Life technologies/GIBCO 72400-21) that was supplemented with 1% penicillin/streptomycin, 10% fetal bovine serum and 2 μM gemcitabine (GEMZAR, Lily). The human immortalized, non-malignant cell line of the ductal pancreatic epithelium (HPDE) was cultured in keratinocyte-SFM (Life technologies/GIBCO) that was supplemented with 10% fetal bovine serum, 1% penicillin/streptomycin and 1% epidermal growth factor (EGF).
The proliferation rates of the cell lines were determined after stimulation with (i) biperiden, (ii) mepazine, and (iii) stimulation with both active ingredients. For this purpose, cells were seeded in plates with 96 wells at 5000 cells per well and incubated overnight at 37° C. and 5% CO2. Next morning, the blanket values were measured at 490 nm in an ELISA reader (FLUOstar Omega, BMG LABTECH) after the addition of 100 μL medium and 20 μL MTT substrate (CellTiter 96 AQueous One Solution Cell Proliferation Assay, Promega). Biperiden was added in increasing concentrations (3.71 μg/ml, 11.1 μg/ml und 29.6 μg/ml) in the form of solutions of biperiden hydrochloride (B5311 SIGMA-Aldrich, USA) and DMSO. […] The ex-tinction was measured every 24 hours during a period of 72 hours.
as §3

**Q.** Which results are given for `OC(CCN1CCCCC1)(c1ccccc1)C1CC2C=CC1C2` (stereo not shown) [biperiden]?
**A.** MALT1 activity (MALT1; HPDE, 29.7 μg/ml biperiden, 10, 30 and 60 minutes after incubation with the MALT1 substrate, significantly (p=0.002; p=0.005; p=0.012)): reduced the MALT1 activity; MALT1 activity (MALT1; Panc-1, 29.7 μg/ml biperiden): visibly reduced the MALT1 activity; however, this effect was not statistically significant; MALT1 activity (MALT1; Panc-2, 29.7 μM biperiden, immediately and 10 minutes after addition of the MALT1 substrate, statistically significant (p=0.011; p=0.031)): the MALT1 activity was reduced; reduction in the proliferation rate [1]: massive reduction; reduction in the proliferation rate (L3.6pl wt; 29.7 μg/ml biperiden, p=0.02): 96.4%; reduction of proliferation rate (L3.6pl res; 29.6 μg/ml biperiden, p=0.022): 71.6%

**Q.** With `CN1CCCC(CN2c3ccccc3Sc3ccccc32)C1` (stereo not shown) [mepazine] as the compound, how does the MALT1 activity (MALT1; HPDE, 25 μM mepazine, 24 hours of incubation) read?
**A.** did not influence the MALT1 activity

**Q.** What about the MALT1 activity (MALT1; Panc-1, 25 μM mepazine, immediately after addition of the MALT1 substrate and 10, 30, 60 and 90 minutes thereafter, statistically significant) of the same compound?
**A.** the MALT1 activity was reduced

**Q.** And the MALT1 activity (MALT1; Panc-2, 25 μM mepazine)?
**A.** reduced the MALT1 activity, whereas this reduction however was not statistically significant

**Q.** And the “reduction in the proliferation rate” value [1]?
**A.** massive reduction

**Q.** What about the “reduction in the proliferation rate” value (L3.6pl wt; 25 μM mepazine, p=0.004) of the same compound?
**A.** 97.9%

**Q.** What about the “reduction of proliferation rate” value (L3.6pl res; 15 μM mepazine, p=0.031) of the same compound?
**A.** 69.4%

**Q.** And the proliferation (L3.6pl res; 25 μM mepazine, p=0.002)?
**A.** completely stopped
